Numbers after ± are expanded uncertainties.
Assay: excess molar enthalpy (molar enthalpy of mixing); xn = mol fraction of the nth substance listed
Details: 100 kPa, Liquid, Calvet calorimetry

NCCNCCNCCN [1,2-ethanediamine, N,N'-bis(2-aminoethyl)-] + O
Details	excess molar enthalpy [kcal/mol]
303.15 K, x1 = 0.0497	-0.671 ± 0.0151
303.15 K, x1 = 0.0697	-0.889 ± 0.0194
303.15 K, x1 = 0.1129	-1.25 ± 0.0263
303.15 K, x1 = 0.2006	-1.57 ± 0.0335
303.15 K, x1 = 0.2478	-1.62 ± 0.0335
303.15 K, x1 = 0.3031	-1.6 ± 0.0335
303.15 K, x1 = 0.3527	-1.55 ± 0.0335
303.15 K, x1 = 0.4038	-1.4 ± 0.0287
303.15 K, x1 = 0.5069	-1.15 ± 0.0239
303.15 K, x1 = 0.589	-0.974 ± 0.0208
303.15 K, x1 = 0.701	-0.71 ± 0.0151
323.15 K, x1 = 0.0496	-0.633 ± 0.0141
323.15 K, x1 = 0.1103	-1.2 ± 0.0263
323.15 K, x1 = 0.1998	-1.44 ± 0.0311
323.15 K, x1 = 0.2469	-1.5 ± 0.0311
323.15 K, x1 = 0.3041	-1.49 ± 0.0311
323.15 K, x1 = 0.4041	-1.32 ± 0.0287
323.15 K, x1 = 0.4995	-1.11 ± 0.0237
323.15 K, x1 = 0.602	-0.91 ± 0.0194
323.15 K, x1 = 0.7006	-0.636 ± 0.0136

NCCOCCO [2-(2-aminoethoxy)ethanol] + O
Details	excess molar enthalpy [kcal/mol]
303.15 K, x1 = 0.0626	-0.24 ± 0.00526
303.15 K, x1 = 0.1041	-0.355 ± 0.00765
303.15 K, x1 = 0.1949	-0.509 ± 0.0108
303.15 K, x1 = 0.3027	-0.551 ± 0.0117
303.15 K, x1 = 0.3448	-0.565 ± 0.012
303.15 K, x1 = 0.398	-0.556 ± 0.012
303.15 K, x1 = 0.5045	-0.483 ± 0.0103
303.15 K, x1 = 0.604	-0.414 ± 0.00884
303.15 K, x1 = 0.7062	-0.333 ± 0.00717
303.15 K, x1 = 0.8105	-0.223 ± 0.00478
303.15 K, x1 = 0.9035	-0.11 ± 0.00239
323.15 K, x1 = 0.0628	-0.222 ± 0.00478
323.15 K, x1 = 0.1062	-0.335 ± 0.00717
323.15 K, x1 = 0.1982	-0.468 ± 0.01
323.15 K, x1 = 0.3017	-0.527 ± 0.0112
323.15 K, x1 = 0.342	-0.539 ± 0.0115
323.15 K, x1 = 0.4004	-0.527 ± 0.0112
323.15 K, x1 = 0.5053	-0.483 ± 0.0103
323.15 K, x1 = 0.5967	-0.417 ± 0.00884
323.15 K, x1 = 0.7043	-0.329 ± 0.00693
323.15 K, x1 = 0.8037	-0.224 ± 0.00478
323.15 K, x1 = 0.9032	-0.107 ± 0.00239

CN(C)CCN(C)CCO [2-{[2-(dimethylamino)ethyl](methyl)amino}ethanol] + O
303.15 K
Details	excess molar enthalpy [kcal/mol]
x1 = 0.1012	-0.696 ± 0.0148
x1 = 0.2028	-0.863 ± 0.0184
x1 = 0.25	-0.894 ± 0.0191
x1 = 0.3015	-0.862 ± 0.0184
x1 = 0.4004	-0.836 ± 0.0177
x1 = 0.4989	-0.716 ± 0.0153

CN(C)CCCO [3-dimethylamino-1-propanol] + O
Details	excess molar enthalpy [kcal/mol]
303.15 K, x1 = 0.0505	-0.252 ± 0.0055
303.15 K, x1 = 0.1027	-0.436 ± 0.00932
303.15 K, x1 = 0.1998	-0.601 ± 0.0129
303.15 K, x1 = 0.3003	-0.683 ± 0.0146
303.15 K, x1 = 0.3515	-0.689 ± 0.0148
303.15 K, x1 = 0.3975	-0.69 ± 0.0148
303.15 K, x1 = 0.5019	-0.647 ± 0.0139
303.15 K, x1 = 0.6483	-0.502 ± 0.0108
303.15 K, x1 = 0.8001	-0.301 ± 0.00645
303.15 K, x1 = 0.9452	-0.0951 ± 0.00215
323.15 K, x1 = 0.0495	-0.229 ± 0.00502
323.15 K, x1 = 0.1003	-0.35 ± 0.00765
323.15 K, x1 = 0.1782	-0.485 ± 0.0105
323.15 K, x1 = 0.3006	-0.587 ± 0.0127
323.15 K, x1 = 0.3485	-0.597 ± 0.0127
323.15 K, x1 = 0.3981	-0.6 ± 0.0129
323.15 K, x1 = 0.4977	-0.568 ± 0.0122
323.15 K, x1 = 0.6455	-0.438 ± 0.00932
323.15 K, x1 = 0.7962	-0.269 ± 0.00574
323.15 K, x1 = 0.9446	-0.0743 ± 0.00167

CCN(CC)CCO [(diethylamino)ethanol] + O
Details	excess molar enthalpy [kcal/mol]
303.15 K, x1 = 0.0504	-0.253 ± 0.0055
303.15 K, x1 = 0.1001	-0.377 ± 0.00813
303.15 K, x1 = 0.2008	-0.522 ± 0.0112
303.15 K, x1 = 0.301	-0.607 ± 0.0129
303.15 K, x1 = 0.3688	-0.62 ± 0.0131
303.15 K, x1 = 0.387	-0.625 ± 0.0134
303.15 K, x1 = 0.4002	-0.621 ± 0.0134
303.15 K, x1 = 0.4522	-0.611 ± 0.0131
303.15 K, x1 = 0.5002	-0.598 ± 0.0129
303.15 K, x1 = 0.5998	-0.528 ± 0.0112
303.15 K, x1 = 0.7003	-0.418 ± 0.00908
303.15 K, x1 = 0.8007	-0.288 ± 0.00621
303.15 K, x1 = 0.901	-0.144 ± 0.00311
323.15 K, x1 = 0.0502	-0.192 ± 0.0043
323.15 K, x1 = 0.1009	-0.296 ± 0.00645
323.15 K, x1 = 0.1951	-0.407 ± 0.00884
323.15 K, x1 = 0.3002	-0.482 ± 0.0103
323.15 K, x1 = 0.369	-0.499 ± 0.0108
323.15 K, x1 = 0.4006	-0.502 ± 0.0108
323.15 K, x1 = 0.5005	-0.477 ± 0.0103
323.15 K, x1 = 0.6	-0.422 ± 0.00908
323.15 K, x1 = 0.6191	-0.386 ± 0.00837
323.15 K, x1 = 0.6997	-0.341 ± 0.00741
323.15 K, x1 = 0.8005	-0.252 ± 0.0055
323.15 K, x1 = 0.9006	-0.12 ± 0.00263

CN(C)CCN(C)CCN(C)C [N,N,N',N'',N''-pentamethyldiethylenetriamine] + O
excess molar enthalpy [kcal/mol]
Details	303.15 K	323.15 K
x1 = 0.0486	-0.641 ± 0.0139	–
x1 = 0.0506	–	-0.561 ± 0.0122
x1 = 0.099	-0.948 ± 0.0203	–
x1 = 0.1024	–	-0.825 ± 0.0177
x1 = 0.15	-1.03 ± 0.022	-0.908 ± 0.0194
x1 = 0.2	–	-0.951 ± 0.0203
x1 = 0.2072	-1.08 ± 0.0229	–
x1 = 0.2492	-1.05 ± 0.0225	–
x1 = 0.25	–	-0.927 ± 0.0198
x1 = 0.3	-1 ± 0.0213	–
x1 = 0.3062	–	-0.869 ± 0.0186
x1 = 0.4001	–	-0.77 ± 0.0165
x1 = 0.4063	-0.841 ± 0.0179	–
x1 = 0.4895	-0.727 ± 0.0155	–
x1 = 0.5005	–	-0.618 ± 0.0131
x1 = 0.6001	–	-0.478 ± 0.0103
x1 = 0.6117	-0.538 ± 0.0115	–

NCCNCCO [N-(2-aminoethyl)ethanolamine] + O
303.15 K
Details	excess molar enthalpy [kcal/mol]
x1 = 0.1031	-0.554 ± 0.012
x1 = 0.202	-0.863 ± 0.0184
x1 = 0.3019	-0.963 ± 0.0206
x1 = 0.3567	-0.995 ± 0.0213
x1 = 0.4023	-0.957 ± 0.0203
x1 = 0.4991	-0.88 ± 0.0186
x1 = 0.5997	-0.74 ± 0.0158
x1 = 0.7027	-0.579 ± 0.0124

NCCCNCCCN [bis(3-aminopropyl)amine] + O
excess molar enthalpy [kcal/mol]
Details	303.15 K	323.15 K
x1 = 0.0507	–	-0.581 ± 0.0129
x1 = 0.0508	-0.621 ± 0.0136	–
x1 = 0.1064	–	-1.05 ± 0.0225
x1 = 0.1065	-1.11 ± 0.0237	–
x1 = 0.1991	–	-1.43 ± 0.0311
x1 = 0.1993	-1.52 ± 0.0335	–
x1 = 0.3005	-1.57 ± 0.0335	-1.48 ± 0.0311
x1 = 0.4049	-1.47 ± 0.0311	–
x1 = 0.4057	–	-1.34 ± 0.0287
x1 = 0.4998	-1.33 ± 0.0287	–
x1 = 0.5003	–	-1.21 ± 0.0263
x1 = 0.602	-1.09 ± 0.0234	–
x1 = 0.6022	–	-0.916 ± 0.0196
x1 = 0.6842	-0.83 ± 0.0177	-0.744 ± 0.0158
x1 = 0.8014	–	-0.463 ± 0.01
x1 = 0.8015	-0.534 ± 0.0115	–

NCCNCCN [di(2-aminoethyl)amine] + O
Details	excess molar enthalpy [kcal/mol]
303.15 K, x1 = 0.0509	-0.542 ± 0.0122
303.15 K, x1 = 0.1001	-0.981 ± 0.021
303.15 K, x1 = 0.1544	-1.33 ± 0.0287
303.15 K, x1 = 0.1962	-1.48 ± 0.0311
303.15 K, x1 = 0.2416	-1.56 ± 0.0335
303.15 K, x1 = 0.3018	-1.59 ± 0.0335
303.15 K, x1 = 0.4026	-1.52 ± 0.0335
303.15 K, x1 = 0.501	-1.29 ± 0.0287
303.15 K, x1 = 0.6025	-1.05 ± 0.0225
303.15 K, x1 = 0.702	-0.811 ± 0.0172
303.15 K, x1 = 0.7984	-0.57 ± 0.0122
323.15 K, x1 = 0.0503	-0.504 ± 0.0112
323.15 K, x1 = 0.0989	-0.911 ± 0.0196
323.15 K, x1 = 0.2028	-1.41 ± 0.0287
323.15 K, x1 = 0.3003	-1.51 ± 0.0311
323.15 K, x1 = 0.4044	-1.38 ± 0.0287
323.15 K, x1 = 0.51	-1.21 ± 0.0263
323.15 K, x1 = 0.6027	-0.938 ± 0.0201
323.15 K, x1 = 0.7018	-0.762 ± 0.0163
323.15 K, x1 = 0.7983	-0.512 ± 0.011

OCCNCCO [diethanolamine] + O
298.15 K
Details	excess molar enthalpy [kcal/mol]
x1 = 0.05035	-0.13 ± 0.00311
x1 = 0.1001	-0.266 ± 0.00574
x1 = 0.1989	-0.41 ± 0.00884
x1 = 0.2023	-0.415 ± 0.00884
x1 = 0.2958	-0.484 ± 0.0103
x1 = 0.3428	-0.494 ± 0.0105
x1 = 0.3974	-0.491 ± 0.0105
x1 = 0.4915	-0.465 ± 0.01
x1 = 0.599	-0.38 ± 0.00813
x1 = 0.7038	-0.304 ± 0.00645
x1 = 0.795	-0.223 ± 0.00478
x1 = 0.9029	-0.0989 ± 0.00215

OCCN(CCO)CCO [triethanolamine] + O
Details	excess molar enthalpy [kcal/mol]
303.15 K, x1 = 0.0473	-0.128 ± 0.00287
303.15 K, x1 = 0.1013	-0.222 ± 0.00478
303.15 K, x1 = 0.2063	-0.308 ± 0.00669
303.15 K, x1 = 0.3064	-0.334 ± 0.00717
303.15 K, x1 = 0.3548	-0.335 ± 0.00717
303.15 K, x1 = 0.4076	-0.327 ± 0.00693
303.15 K, x1 = 0.4902	-0.292 ± 0.00621
303.15 K, x1 = 0.5783	-0.267 ± 0.00574
303.15 K, x1 = 0.71	-0.201 ± 0.0043
303.15 K, x1 = 0.7943	-0.145 ± 0.00311
303.15 K, x1 = 0.8959	-0.0758 ± 0.00167
323.15 K, x1 = 0.0487	-0.119 ± 0.00263
323.15 K, x1 = 0.1001	-0.207 ± 0.00454
323.15 K, x1 = 0.2028	-0.288 ± 0.00621
323.15 K, x1 = 0.3033	-0.317 ± 0.00669
323.15 K, x1 = 0.3502	-0.322 ± 0.00693
323.15 K, x1 = 0.4	-0.319 ± 0.00693
323.15 K, x1 = 0.5021	-0.279 ± 0.00598
323.15 K, x1 = 0.6021	-0.249 ± 0.00526
323.15 K, x1 = 0.6989	-0.198 ± 0.0043
323.15 K, x1 = 0.8006	-0.14 ± 0.00311
323.15 K, x1 = 0.9009	-0.0679 ± 0.00143

— the NIST ThermoML archive (doi:10.1016/j.jct.2015.04.030)
